Measured values as given in patent publication US9321718B2 (CHROMA THERAPEUTICS LTD., priority 2010, dated 2016).

Target: T1, human recombinant his-tagged HSP90α (Homo sapiens, UniProt P07900)
T1 construct: purchased Prospec Technogene #HSP90
Test: HSP90 enzyme assay (HTRF, competition with biotinylated Geldanamycin)
Type: binding
Details: IC50 range; read-out: Enzyme Assay
Excerpt: An HTRF (homogeneous time resolved fluorescence) assay is used to measure the interaction of the compounds with HSP90. The assay measures binding of biotinylated Geldanamycin (bio-GM; Biomol, #EI-341, lot: A9199a) to human recombinant his-tagged HSP90α (HSP90; Prospec Technogene, #HSP90, lot: 260HSP9001). A signal is generated by fluorescence resonance energy transfer from an Europium-cryptate labeled anti-his antibody (anti-his-K; Cisbio International, #61HISKLA, lot: 33V) via the HSP90-GM-biotin complex to a fluorescence acceptor (allophycocyanin) linked to streptavidin (SA-XL; Cisbio International, #610SAXLB, lot: 089).
Unlabeled GM or compounds compete with the bio-GM for binding to HSP90 resulting in reduced fluorescence energy transfer/assay signal.
A preformed (1 hour incubation) complex of HSP90 with the anti-his-K is added to the compound solution in a 384 well microplate (Corning, #3710) and incubated for 15 minutes. A preformed (1 hour incubation) complex of bio-GM with the SA-XL is added to the wells and incubated for 20 hours. All incubations are performed at room temperature. The final assay volume is 50 μl/well. The final concentrations in the assay are: 50 mM Hepes pH 7.3, 50 mM NaCl, 100 mM KF, 1 mM EDTA, 1 mM DTT, 0.1% Triton-X-100, […] HSP90, 40 nM SA-XL, 40 nM bio-GM. Test compounds are dissolved in DMSO, prediluted in assay buffer and tested at a final concentration between 5000 nM and 0.3 nM. The resulting DMSO concentration is 0.5% and included in all controls. High controls are without test compounds, low controls without test compounds, without HSP90 and without bio-GM. As a reference inhibitor unlabeled GM is used in the same concentrations as the test compounds.
Inhibition is calculated compared to the assay controls using an Excel spreadsheet (Microsoft). IC50 values are calculated by non-linear least squares fitting to the standard dose-response model using GraphPad Prism (GraphPad Software Inc).

| Compound | IC50 [µM] |
| --- | --- |
| CC(C)c1cc(C(=O)N2Cc3ccc(CCNC4(C(=O)O)CCCC4)cc3C2)c(O)cc1O [Example 93, 1-{[2-(2-{[2,4-dihydroxy-5-(propan-2-yl)phenyl]carbonyl}-2,3-dihydro-1H-isoindol-5-yl)ethyl]amino}cyclopentanecarboxylic acid] | < 0.1 |
| CC(C)c1cc(C(=O)N2CCC(CCN[C@H](C(=O)O)C3CCCCC3)CC2)c(O)cc1O [Example 123, (2S)-cyclohexyl{[2-(1-{[2,4-dihydroxy-5-(propan-2-yl)phenyl]carbonyl}piperidin-4-yl)ethyl]amino}ethanoic acid] | < 0.1 |
| CC(C)c1cc(C(=O)N2CCC(CN[C@H](C(=O)O)C(C)C)CC2)c(O)cc1O [Example 112, N-[(1-{[2,4-dihydroxy-5-(propan-2-yl)phenyl]carbonyl}piperidin-4-yl)methyl]-L-valine] | < 0.1 |
| CC(C)c1cc(C(=O)N2CCC(CCN[C@H](C(=O)O)c3ccccc3)CC2)c(O)cc1O [Example 124, (2S)-{[2-(1-{[2,4-dihydroxy-5-(propan-2-yl)phenyl]carbonyl}piperidin-4-yl)ethyl]amino}(phenyl)ethanoic acid] | < 0.1 |
| CC(C)C[C@H](NCc1ccc(CN(C)C(=O)c2cc(C(C)C)c(O)cc2O)cc1)C(=O)O [Example 77, N-(4-{[{[2,4-dihydroxy-5-(propan-2-yl)phenyl]carbonyl}(methyl)amino]methyl}benzyl)-L-leucine] | < 0.1 |
| CC(C)c1cc(C(=O)N2CCC(CN[C@H](C(=O)O)C3CCCCC3)CC2)c(O)cc1O [Example 116, (2S)-cyclohexyl{[(1-{[2,4-dihydroxy-5-(propan-2-yl)phenyl]carbonyl}piperidin-4-yl)methyl]amino}ethanoic acid] | < 0.1 |
| CC(C)c1cc(C(=O)N2CCC(CN[C@@H](C)C(=O)O)CC2)c(O)cc1O [Example 106, N-[(1-{[2,4-dihydroxy-5-(propan-2-yl)phenyl]carbonyl}piperidin-4-yl)methyl]-L-alanine] | < 0.1 |
| CC(C)c1cc(C(=O)N2CCC(CCN[C@@H](COC(C)(C)C)C(=O)O)CC2)c(O)cc1O [Example 115, O-tert-butyl-N-[2-(1-{[2,4-dihydroxy-5-(propan-2-yl)phenyl]carbonyl}piperidin-4-yl)ethyl]-L-serine] | < 0.1 |
| CC(C)C[C@@H](NCC1CCN(C(=O)c2cc(C(C)C)c(O)cc2O)CC1)C(=O)O [Example 108, N-[(1-{[2,4-dihydroxy-5-(propan-2-yl)phenyl]carbonyl}piperidin-4-yl)methyl]-D-leucine] | < 0.1 |
| CC(C)c1cc(C(=O)N2CCC(CN[C@@H](Cc3ccccc3)C(=O)O)CC2)c(O)cc1O [Example 107, N-[(1-{[2,4-dihydroxy-5-(propan-2-yl)phenyl]carbonyl}piperidin-4-yl)methyl]-L-phenylalanine] | < 0.1 |
| CCOC(=O)[C@H](C)NCc1ccc2c(c1)CN(C(=O)c1cc(C(C)C)c(O)cc1O)C2 [Example 57, ethyl N-[(2-{[2,4-dihydroxy-5-(propan-2-yl)phenyl]carbonyl}-2,3-dihydro-1H-isoindol-5-yl)methyl]-L-alaninate] | < 0.1 |
| N-{3-[(1-{[2,4-dihydroxy-5-(propan-2-yl)phenyl]carbonyl}piperidin-4-yl)amino]propyl}-L-leucine [Example 127] | < 0.1 |
| CC(C)C[C@H](NCc1ccc2c(c1)CN(C(=O)c1cc(C(C)C)c(O)cc1O)C2)C(=O)O [Example 78, N-[(2-{[2,4-dihydroxy-5-(propan-2-yl)phenyl]carbonyl}-2,3-dihydro-1H-isoindol-5-yl)methyl]-L-leucine] | < 0.1 |
| CC(C)c1cc(C(=O)N2CCC(N[C@@H](COC(C)(C)C)C(=O)O)CC2)c(O)cc1O [Example 122, O-tert-butyl-N-(1-{[2,4-dihydroxy-5-(propan-2-yl)phenyl]carbonyl}piperidin-4-yl)-L-serine] | < 0.1 |
| CC(C)OC(=O)[C@H](C)NCc1ccc2c(c1)CN(C(=O)c1cc(C(C)C)c(O)cc1O)C2 [Example 58, propan-2-yl N-[(2-{[2,4-dihydroxy-5-(propan-2-yl)phenyl]carbonyl}-2,3-dihydro-1H-isoindol-5-yl)methyl]-L-alaninate] | < 0.1 |
| CC(C)c1cc(C(=O)N2CCC(N[C@@H](Cc3ccccc3)C(=O)O)CC2)c(O)cc1O [Example 101, N-(1-{[2,4-dihydroxy-5-(propan-2-yl)phenyl]carbonyl}piperidin-4-yl)-L-phenylalanine] | < 0.1 |
| CC(C)c1cc(C(=O)N2CCC(CCN[C@@H](C)C(=O)O)CC2)c(O)cc1O [Example 92, N-[2-(1-{[2,4-dihydroxy-5-(propan-2-yl)phenyl]carbonyl}piperidin-4-yl)ethyl]-L-alanine] | < 0.1 |
| CC(C)c1cc(C(=O)N2Cc3ccc(CNC4(C(=O)O)CCCC4)cc3C2)c(O)cc1O [Example 83, 1-{[(2-{[2,4-dihydroxy-5-(propan-2-yl)phenyl]carbonyl}-2,3-dihydro-1H-isoindol-5-yl)methyl]amino}cyclopentanecarboxylic acid] | < 0.1 |
| CC(C)c1cc(C(=O)N2Cc3ccc(CN[C@@H](C)C(=O)O)cc3C2)c(O)cc1O [Example 82, N-[(2-{[2,4-dihydroxy-5-(propan-2-yl)phenyl]carbonyl}-2,3-dihydro-4H-isoindol-5-yl)methyl]-L-alanine] | < 0.1 |
| CC(C)C[C@H](NCCCc1ccc2c(c1)CN(C(=O)c1cc(C(C)C)c(O)cc1O)C2)C(=O)O [Example 80, N-[3-(2-{[2,4-dihydroxy-5-(propan-2-yl)phenyl]carbonyl}-2,3-dihydro-1H-isoindol-5-yl)propyl]-L-leucine] | < 0.1 |
| CC(C)c1cc(C(=O)N2CCC(CCN[C@H](C(=O)OC(C)(C)C)c3ccccc3)CC2)c(O)cc1O [Example 50, tert-butyl (2S)-{[2-(1-{[2,4-dihydroxy-5-(propan-2-yl)phenyl]carbonyl}piperidin-4-yl)ethyl]amino}(phenyl)ethanoate] | < 0.1 |

Further lines, results first:

| IC50 [µM] | Compound |
| --- | --- |
| 0.1 to 1 | CC(C)C[C@H](NC1CCCN(C(=O)c2cc(C(C)C)c(O)cc2O)C1)C(=O)O (stereo partly drawn) [Example 102, N-(1-{[2,4-dihydroxy-5-(propan-2-yl)phenyl]carbonyl}piperidin-3-yl)-L-leucine] |
| < 0.1 | CC(C)c1cc(C(=O)N(C)Cc2ccc(CN[C@H](C(=O)O)c3ccccc3)cc2)c(O)cc1O [Example 85, (2S)-[(4-{[{[2,4-dihydroxy-5-(propan-2-yl)phenyl]carbonyl}(methyl)amino]methyl}benzyl)amino](phenyl)ethanoic acid] |
| < 0.1 | CC(C)c1cc(C(=O)N2CCC(N[C@@H](CO)C(=O)O)CC2)c(O)cc1O [Example 125, N-(1-{[2,4-dihydroxy-5-(propan-2-yl)phenyl]carbonyl}piperidin-4-yl)-L-serine] |
| < 0.1 | CC(C)c1cc(C(=O)N2CCC(CN[C@@H](CO)C(=O)O)CC2)c(O)cc1O [Example 118, N-[(1-{[2,4-dihydroxy-5-(propan-2-yl)phenyl]carbonyl}piperidin-4-yl)methyl]-L-serine] |
| < 0.1 | CC(C)c1cc(C(=O)N2CCC(CN[C@H](C(=O)O)c3ccccc3)CC2)c(O)cc1O [Example 120, (2S)-{[(1-{[2,4-dihydroxy-5-(propan-2-yl)phenyl]carbonyl}piperidin-4-yl)methyl]amino}(phenyl)ethanoic acid] |
| < 0.1 | CC(C)c1cc(C(=O)N(C)Cc2cccc(CN[C@H](C(=O)O)c3ccccc3)c2)c(O)cc1O [Example 89, (2S)-[(3-{[{[2,4-dihydroxy-5-(propan-2-yl)phenyl]carbonyl}(methyl)amino]methyl}benzyl)amino](phenyl)ethanoic acid] |
| < 0.1 | CC(C)c1cc(C(=O)N2CCC(N[C@@H](C)C(=O)O)CC2)c(O)cc1O [Example 100, N-(1-{[2,4-dihydroxy-5-(propan-2-yl)phenyl]carbonyl}piperidin-4-yl)-L-alanine] |
| < 0.1 | CC(C)c1cc(C(=O)N2CCC(N[C@H](C(=O)O)C3CCCCC3)CC2)c(O)cc1O [Example 113] |
| < 0.1 | CCCC[C@H](NC1CCN(C(=O)c2cc(C(C)C)c(O)cc2O)CC1)C(=O)O [Example 105, N-(1-{[2,4-dihydroxy-5-(propan-2-yl)phenyl]carbonyl}piperidin-4-yl)-L-norleucine] |
| < 0.1 | CC(C)c1cc(C(=O)N2CCC(CCN[C@H](C(=O)OC(C)(C)C)C3CCCCC3)CC2)c(O)cc1O [Example 49, tert-butyl (2S)-cyclohexyl{[2-(1-{[2,4-dihydroxy-5-(propan-2-yl)phenyl]carbonyl}piperidin-4-yl)ethyl]amino}ethanoate] |
| < 0.1 | CC(C)c1cc(C(=O)N(C)Cc2ccc(CCNC(C)(C)C(=O)O)cc2)c(O)cc1O [Example 91, N-[2-(4-{[{[2,4-dihydroxy-5-(propan-2-yl)phenyl]carbonyl}(methyl)amino]methyl}phenyl)ethyl]-2-methylalanine] |

Same assay, conditions: in words, relative to non-ester parent CHR-7310

| IC50 in the Hsp90 binding assay compared with CHR-7310 | Compound |
| --- | --- |
| similar | CC(C)c1cc(C(=O)N2CCC(N[C@@H](COC(C)(C)C)C(=O)O)CC2)c(O)cc1O [Example 122, O-tert-butyl-N-(1-{[2,4-dihydroxy-5-(propan-2-yl)phenyl]carbonyl}piperidin-4-yl)-L-serine] |
